Reference: ChEMBL document CHEMBL2074280, “Acceleration of MRP-associated efflux of rhodamine 123 by genistein and related compounds” (Br J Cancer, 1996)

How the values were obtained:
Type in all cases: functional, cell-based
[1] = target: T1, Multidrug resistance-associated protein 1 (Homo sapiens, UniProt P33527); assay: TP_TRANSPORTER: increase in DNR intracellular accumulation (DNR: 0.5 uM, Genistein: 200 uM) in COR-L23/R cells
[2] = target: T1, Multidrug resistance-associated protein 1; assay: TP_TRANSPORTER: increase in DNR intracellular accumulation (DNR: 0.5 uM, Genistein: 200 uM) in MOR-R cells
[3] = target: ATP-dependent translocase ABCB1 (Homo sapiens, UniProt P08183); assay: TP_TRANSPORTER: increase in DNR intracellular accumulation (DNR: 0.5 uM, Genistein: 200 uM) in H69/LX4 cells; details: h69/lx4, 200 µM
Chain of ATP-dependent translocase ABCB1 (P08183 whole entry): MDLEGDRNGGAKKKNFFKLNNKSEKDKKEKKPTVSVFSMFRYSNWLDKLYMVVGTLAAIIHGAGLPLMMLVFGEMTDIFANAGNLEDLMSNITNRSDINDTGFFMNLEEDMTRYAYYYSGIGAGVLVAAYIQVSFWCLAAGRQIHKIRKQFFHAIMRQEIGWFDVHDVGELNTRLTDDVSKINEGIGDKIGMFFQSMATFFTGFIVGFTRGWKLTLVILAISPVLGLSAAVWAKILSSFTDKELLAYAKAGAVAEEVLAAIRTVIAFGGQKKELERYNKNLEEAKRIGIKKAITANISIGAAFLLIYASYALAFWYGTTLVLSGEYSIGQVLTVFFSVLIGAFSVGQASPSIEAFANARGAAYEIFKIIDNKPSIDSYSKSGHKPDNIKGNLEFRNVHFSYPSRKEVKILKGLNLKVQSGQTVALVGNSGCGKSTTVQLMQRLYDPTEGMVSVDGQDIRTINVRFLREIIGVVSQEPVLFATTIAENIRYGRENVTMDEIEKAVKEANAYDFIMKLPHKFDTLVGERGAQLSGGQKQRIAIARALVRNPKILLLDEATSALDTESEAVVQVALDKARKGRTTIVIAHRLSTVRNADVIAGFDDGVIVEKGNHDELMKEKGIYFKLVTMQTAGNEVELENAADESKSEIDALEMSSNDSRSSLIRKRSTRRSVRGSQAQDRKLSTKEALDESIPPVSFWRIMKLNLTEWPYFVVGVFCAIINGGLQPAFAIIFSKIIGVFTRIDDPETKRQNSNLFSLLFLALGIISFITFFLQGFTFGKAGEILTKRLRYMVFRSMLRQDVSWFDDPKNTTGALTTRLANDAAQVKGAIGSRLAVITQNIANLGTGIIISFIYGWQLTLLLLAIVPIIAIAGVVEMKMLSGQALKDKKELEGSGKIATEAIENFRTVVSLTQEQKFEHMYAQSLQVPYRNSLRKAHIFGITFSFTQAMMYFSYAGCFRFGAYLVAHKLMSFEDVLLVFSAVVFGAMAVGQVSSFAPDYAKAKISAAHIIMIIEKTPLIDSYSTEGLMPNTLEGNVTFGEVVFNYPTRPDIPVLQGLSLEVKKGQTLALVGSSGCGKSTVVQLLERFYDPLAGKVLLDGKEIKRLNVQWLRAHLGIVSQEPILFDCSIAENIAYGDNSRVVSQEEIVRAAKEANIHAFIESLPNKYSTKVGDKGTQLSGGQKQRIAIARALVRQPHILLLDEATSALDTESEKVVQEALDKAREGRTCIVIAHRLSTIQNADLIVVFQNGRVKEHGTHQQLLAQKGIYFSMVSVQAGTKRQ

Measured: Activity

T1 sequence (P33527 whole entry): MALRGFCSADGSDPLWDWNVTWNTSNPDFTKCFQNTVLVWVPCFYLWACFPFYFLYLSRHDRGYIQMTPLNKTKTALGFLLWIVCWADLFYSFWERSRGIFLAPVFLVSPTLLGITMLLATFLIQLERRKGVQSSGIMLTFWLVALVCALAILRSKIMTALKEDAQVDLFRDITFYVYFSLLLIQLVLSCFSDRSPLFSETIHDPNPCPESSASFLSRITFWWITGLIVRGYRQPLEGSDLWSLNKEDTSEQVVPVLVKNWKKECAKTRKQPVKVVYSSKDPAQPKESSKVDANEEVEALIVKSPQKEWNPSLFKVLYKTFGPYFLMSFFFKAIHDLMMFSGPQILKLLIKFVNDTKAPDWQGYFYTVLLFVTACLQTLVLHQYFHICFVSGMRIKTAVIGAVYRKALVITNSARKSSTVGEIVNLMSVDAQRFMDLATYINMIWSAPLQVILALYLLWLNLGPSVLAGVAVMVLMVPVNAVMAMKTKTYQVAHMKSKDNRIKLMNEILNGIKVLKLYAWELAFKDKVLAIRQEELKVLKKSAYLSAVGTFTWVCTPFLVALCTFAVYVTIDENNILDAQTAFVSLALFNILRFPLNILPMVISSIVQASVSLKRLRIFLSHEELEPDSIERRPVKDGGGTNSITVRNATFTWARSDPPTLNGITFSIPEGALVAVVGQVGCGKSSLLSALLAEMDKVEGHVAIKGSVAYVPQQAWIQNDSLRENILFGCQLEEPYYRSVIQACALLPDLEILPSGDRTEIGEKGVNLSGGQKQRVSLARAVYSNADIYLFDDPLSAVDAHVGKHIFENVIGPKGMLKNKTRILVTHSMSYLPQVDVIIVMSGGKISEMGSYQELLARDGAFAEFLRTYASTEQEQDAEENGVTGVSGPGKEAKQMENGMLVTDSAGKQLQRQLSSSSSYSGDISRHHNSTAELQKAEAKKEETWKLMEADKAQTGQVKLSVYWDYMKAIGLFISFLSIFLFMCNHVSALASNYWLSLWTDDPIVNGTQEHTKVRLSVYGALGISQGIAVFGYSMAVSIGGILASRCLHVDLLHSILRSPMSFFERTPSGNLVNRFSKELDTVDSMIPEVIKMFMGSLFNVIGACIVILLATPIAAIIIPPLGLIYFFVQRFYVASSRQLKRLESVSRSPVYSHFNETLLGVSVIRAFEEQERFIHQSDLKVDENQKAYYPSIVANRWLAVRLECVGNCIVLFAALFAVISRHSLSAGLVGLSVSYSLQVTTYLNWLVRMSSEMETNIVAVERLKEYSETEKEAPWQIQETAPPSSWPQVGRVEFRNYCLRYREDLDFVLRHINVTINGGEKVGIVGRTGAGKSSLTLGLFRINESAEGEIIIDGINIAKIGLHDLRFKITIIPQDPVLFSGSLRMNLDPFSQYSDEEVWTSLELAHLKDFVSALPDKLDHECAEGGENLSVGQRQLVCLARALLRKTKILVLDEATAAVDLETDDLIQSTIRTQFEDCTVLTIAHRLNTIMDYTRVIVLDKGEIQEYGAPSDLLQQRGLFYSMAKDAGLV

O=c1c(-c2ccc(O)cc2)coc2cc(O)cc(O)c12 [GENISTEIN]
inhibitor [+]: [1] | [2] | [3]
